Test [1] can be described thus: Bacterial membrane permeabilization assay (carboxyfluorescein leakage from liposomes). In kind it is biochemical, Escherichia coli. The settings on record: E. coli polar lipid extract liposomes, 10 µM lipid, Tris 10 mM pH 7.4, 45 min, carboxyfluorescein fluorescence; EC50 fixed at 50% of maximum leakage (Triton X-100); mean of four experiments; read-out: EC50 liposome leakage. Here is the method:
Liposomes were manufactured and permeabilization-assayed as described previously. Briefly, lipid films of Escherichia coli polar lipid extract were deposited on round-bottom flask walls. The lipid films were re-suspended at 55 °C in an aqueous solution of 100 mM of 5(6)-carboxyfluorescein in Tris buffer. The suspensions were subjected to repeated extrusion through a 100 nm polycarbonate membrane in order to reduce multilamellar structures and polydispersity. Un-trapped carboxyfluorescein was removed by gel filtration. Membrane permeability was measured by monitoring carboxyfluorescein efflux from the liposomes to the external low-concentration environment, resulting in a loss of self-quenching and an increased fluorescence signal. The 96-well plates were prepared with a 2-fold serial dilution of the peptides in Tris buffer (10 mM, pH 7.4), and controls without peptides (background) and 0.16% Triton X-100 (maximum leakage). The plates were administered a liposome solution to a final lipid concentration of 10 μM in 200 µL. The effects of each peptide concentration on the liposomes were monitored for 45 min, at which point the initial leakage had largely subsided. The results shown represent the mean from four experiments (one for 3624 Da) with standard deviations and are expressed as the percent of total leakage generated with Triton X-100 and subtraction of the baseline value. […]

The conditions of test [2]: previous experiments; read-out: EC50 liposome leakage, previous experiments; cited from earlier work. Here is the method: The ability of the Parborlasia peptides to permeabilize reconstituted E. coli phospholipid membranes was tested in a liposome-based assay. The peptides display the typical steep logarithmic AMP leakage kinetic (Figure 8). […] The 3624 Da peptide was tested in a single experiment series in this assay. The 26-residue long bee venom peptide melittin was used as a reference ...

Among the data in publication PMC11126048, “Peptide Toxins from Antarctica: The Nemertean Predator and Scavenger Parborlasia corrugatus (McIntosh, 1876)” (Toxins, 2024) are EC50 values, retold here.

Where two headings read alike, the source gives them in different places.

With Melittin, the concentration giving a half-maximal response (EC50) in test [1] is 300 nM; in test [2] it was 400 nM.

As a reminder, the EC50 is the concentration that produces a half-maximal response.
